In publication PMC8151276, “An Integrated Approach toward NanoBRET Tracers for Analysis of GPCR Ligand Engagement” (Molecules, 2021):

Experiments:
Type in all cases: binding
[1] = biological target: T1, CCR2 (Homo sapiens, UniProt P41597); assay: NanoBRET screen HiBiT-CCR2 in HEK293; conditions: CCR2
T1 construct: purchased Promega (in-house HiBiT-GPCR construct library, NanoBRET)
Description: (§1) Each tracer candidate was screened across the entire library of HiBiT-GPCR constructs using NanoBRET as the detection modality. As depicted in Figure 4A, the specificity of interactions was evaluated through decrease in BRET due to competitive displacement of a bound tracer by excess parental compound. Each tracer was analyzed for binding to each HiBiT-GPCR fusion in the absence and in the presence of competing parental compound. Briefly, HEK293 cells were transfected with HiBiT-GPCR constructs diluted into promoterless DNA to reduce expression and maximize translocation to the cell surface. Each tracer candidate was then screened at concentrations of 1 μM and 0.1 μM across cells expressing these fusions. Cells were treated for 1.5 h with tracer either alone or in the presence of 20 μM competing parental compound (i.e., control). BRET was measured upon addition of purified LgBiT and subsequent complementation with HiBiT genetically fused to a GPCR. The specificity of interactions was assessed through a decrease in BRET signal due to competitive displacement of the bound tracer. To further gauge the robustness of these interactions, the fold response over the control (i.e., BRETtracer/BRETcontrol) was calculated. We chose a 1.5-fold response, which translates to ≥7-fold signal over noise as the minimal threshold required to score an interaction as positive. […]. Below we highlight the screening results obtained for our exemplary fluorescent tracers based on Clozapine, Amitriptyline and AZD1283.
(§2) HiBiT-GPCR DNA constructs were diluted in 10 mM Tris pH 8 to a final concentration of 0.01 μg/μL, arrayed in 96-well plates and stored at −20 °C. For transfection, HEK293 cells were suspended in Opti-MEM (without phenol red) supplemented with 2% fetal bovine serum (Seradigm) and 100 units/mL penicillin–streptomycin (Gibco) at a final concentration of 220,000 cells/mL and dispensed into white 96-well plates at 90 μL/well. Subsequent transfections and screens were carried using an Agilent Bravo Automated Liquid Handling Platform. First, the 96-well HiBiT DNA arrays were diluted 25-fold in Opti-MEM (without serum or phenol red) to a final concentration of 0.0004 μg/μL and 20 μL of the diluted DNAs were transferred into new 96-well plates. Next, promoterless carrier DNA (1 μg/μL) was diluted 25-fold (0.04 μg/μL) and then dispensed into the diluted arrays at 20 μL/well. Following brief mixing, Viafect transfection reagent (Promega) diluted 16-fold into Opti-MEM was dispensed into the plates at 40 μL/well. After mixing by pipetting, plates were incubated for 10 min on the pipetting station deck. The DNA-transfection reagent complexes were then added to plates containing cells. To facilitate the screen, 10 μL of DNA-transfection reagent complexes were added in duplicates to the top 4 and bottom 4 rows, resulting in two identical 48-well arrays per plate. Plates with transfected cells were incubated for 18–20 h at 37 °C/5% CO2. A screen of each tracer across the entire library using two different concentrations requires duplicate plates of transfected cells. Depending on the number of tracers being screened, transfections can be scaled up using the same ratios. The next day, for each tracer, four 20× screening solutions in tracer dilution buffer (Promega) were prepared: two duplicates at final concentration of 20 μM and two duplicates at a final concentration of 2 μM. A competing unmodified compound was added to one of each duplicate at a final concentration of 400 μM. The four resulting solutions were diluted 4-fold in Opti-MEM without serum or phenol red to generate 5× solutions (5 µM and 0.5 µM tracer +/− 100 μM competing compound). To screen the library, a BioTek MultiFlo FX liquid dispenser was used to dispense 22.5 µL of tracer solution to the top 4 rows and 22.5 µL tracer + competing compound solution to the 4 bottom rows. Plates were briefly mixed on an orbital shaker and incubated for 1.5 h at room temperature. […]

[2] = biological target: T2, DRD5 (Homo sapiens, UniProt P21918); assay: NanoBRET screen HiBiT-DRD5 in HEK293; conditions: DRD5
T2 construct: purchased Promega (in-house HiBiT-GPCR construct library, NanoBRET)
Description: as §1, §2

[3] = biological target: T3, SMO (Homo sapiens, UniProt Q99835); assay: NanoBRET screen HiBiT-SMO in HEK293; conditions: SMO
T3 construct: purchased Promega (in-house HiBiT-GPCR construct library, NanoBRET)
Description: as §1, §2

[4] = biological target: T4, HTR1D (Homo sapiens, UniProt P28221); assay: NanoBRET screen HiBiT-HTR1D in HEK293; conditions: HTR1D
T4 construct: purchased Promega (in-house HiBiT-GPCR construct library, NanoBRET)
Description: as §1, §2

[5] = biological target: T5, PTAFR (Homo sapiens, UniProt P25105); assay: NanoBRET screen HiBiT-PTAFR in HEK293; conditions: PTAFR
T5 construct: purchased Promega (in-house HiBiT-GPCR construct library, NanoBRET)
Description: as §1, §2

[6] = biological target: T6, RXFP3 (Homo sapiens, UniProt Q9NSD7); assay: NanoBRET screen HiBiT-RXFP3 in HEK293; conditions: RXFP3
T6 construct: purchased Promega (in-house HiBiT-GPCR construct library, NanoBRET)
T6 sequence (Q9NSD7 1-469): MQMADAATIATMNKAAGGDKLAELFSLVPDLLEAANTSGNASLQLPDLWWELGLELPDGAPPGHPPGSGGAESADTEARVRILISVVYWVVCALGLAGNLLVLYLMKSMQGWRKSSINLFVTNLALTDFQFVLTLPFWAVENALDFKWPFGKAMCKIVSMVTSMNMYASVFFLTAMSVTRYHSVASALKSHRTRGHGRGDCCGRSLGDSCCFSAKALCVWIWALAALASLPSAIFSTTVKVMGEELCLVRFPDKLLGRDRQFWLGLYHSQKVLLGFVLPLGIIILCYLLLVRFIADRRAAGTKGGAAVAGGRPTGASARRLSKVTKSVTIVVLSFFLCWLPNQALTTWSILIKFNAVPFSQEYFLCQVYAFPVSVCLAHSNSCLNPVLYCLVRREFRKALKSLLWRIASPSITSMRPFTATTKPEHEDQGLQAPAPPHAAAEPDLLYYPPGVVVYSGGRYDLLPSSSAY
Description: as §1, §2

[7] = biological target: T7, SSTR1 (Homo sapiens, UniProt P30872); assay: NanoBRET screen HiBiT-SSTR1 in HEK293; conditions: SSTR1
T7 construct: purchased Promega (in-house HiBiT-GPCR construct library, NanoBRET)
Description: as §1, §2

[8] = biological target: T8, PTGDR2 (Homo sapiens, UniProt Q9Y5Y4); assay: NanoBRET screen HiBiT-PTGDR2 in HEK293; conditions: PTGDR2
T8 construct: purchased Promega (in-house HiBiT-GPCR construct library, NanoBRET)
T8 sequence (Q9Y5Y4 1-395): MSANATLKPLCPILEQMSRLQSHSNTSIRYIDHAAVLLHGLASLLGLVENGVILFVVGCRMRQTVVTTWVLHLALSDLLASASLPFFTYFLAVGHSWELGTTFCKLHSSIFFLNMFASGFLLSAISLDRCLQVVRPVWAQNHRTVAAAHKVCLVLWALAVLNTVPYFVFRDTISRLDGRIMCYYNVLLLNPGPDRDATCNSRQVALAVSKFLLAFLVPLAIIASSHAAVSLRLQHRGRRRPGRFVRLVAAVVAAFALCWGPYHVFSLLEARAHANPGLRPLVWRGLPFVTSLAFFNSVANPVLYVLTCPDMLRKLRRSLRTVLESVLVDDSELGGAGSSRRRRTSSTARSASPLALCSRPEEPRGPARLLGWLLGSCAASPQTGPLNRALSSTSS
Description: as §1, §2

[9] = biological target: T9, CNR1 (Homo sapiens, UniProt P21554); assay: NanoBRET screen HiBiT-CNR1 in HEK293; conditions: CNR1
T9 construct: purchased Promega (in-house HiBiT-GPCR construct library, NanoBRET)
Description: as §1, §2

T5 sequence (P25105 whole entry): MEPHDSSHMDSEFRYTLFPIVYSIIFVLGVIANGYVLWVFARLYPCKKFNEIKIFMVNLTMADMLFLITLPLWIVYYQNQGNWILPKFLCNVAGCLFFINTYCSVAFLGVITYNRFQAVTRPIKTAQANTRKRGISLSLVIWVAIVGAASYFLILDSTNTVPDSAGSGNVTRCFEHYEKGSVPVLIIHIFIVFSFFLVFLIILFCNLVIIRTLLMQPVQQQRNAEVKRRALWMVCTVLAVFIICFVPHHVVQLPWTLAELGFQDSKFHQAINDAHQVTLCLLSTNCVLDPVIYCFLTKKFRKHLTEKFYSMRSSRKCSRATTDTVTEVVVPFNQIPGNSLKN
T1 sequence (P41597 whole entry): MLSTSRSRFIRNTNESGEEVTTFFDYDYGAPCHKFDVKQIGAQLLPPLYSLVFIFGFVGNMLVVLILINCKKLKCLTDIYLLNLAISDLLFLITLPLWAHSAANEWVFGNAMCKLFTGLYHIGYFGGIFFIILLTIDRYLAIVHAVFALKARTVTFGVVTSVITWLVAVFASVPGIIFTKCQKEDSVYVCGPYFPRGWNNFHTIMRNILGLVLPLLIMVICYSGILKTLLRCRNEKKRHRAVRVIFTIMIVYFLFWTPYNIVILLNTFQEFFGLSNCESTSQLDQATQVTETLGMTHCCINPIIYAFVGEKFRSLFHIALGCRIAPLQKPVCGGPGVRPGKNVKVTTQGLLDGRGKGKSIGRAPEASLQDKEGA
T7 sequence (P30872 whole entry): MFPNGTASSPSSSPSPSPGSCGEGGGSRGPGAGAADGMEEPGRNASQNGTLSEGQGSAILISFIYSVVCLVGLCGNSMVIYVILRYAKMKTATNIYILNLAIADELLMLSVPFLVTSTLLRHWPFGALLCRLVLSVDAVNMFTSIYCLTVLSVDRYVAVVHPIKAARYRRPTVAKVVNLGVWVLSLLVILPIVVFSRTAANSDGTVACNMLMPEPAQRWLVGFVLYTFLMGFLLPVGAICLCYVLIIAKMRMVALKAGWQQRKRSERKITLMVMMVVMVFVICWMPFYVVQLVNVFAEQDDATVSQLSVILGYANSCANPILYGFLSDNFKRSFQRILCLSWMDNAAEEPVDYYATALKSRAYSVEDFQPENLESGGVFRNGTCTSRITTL
T2 sequence (P21918 whole entry): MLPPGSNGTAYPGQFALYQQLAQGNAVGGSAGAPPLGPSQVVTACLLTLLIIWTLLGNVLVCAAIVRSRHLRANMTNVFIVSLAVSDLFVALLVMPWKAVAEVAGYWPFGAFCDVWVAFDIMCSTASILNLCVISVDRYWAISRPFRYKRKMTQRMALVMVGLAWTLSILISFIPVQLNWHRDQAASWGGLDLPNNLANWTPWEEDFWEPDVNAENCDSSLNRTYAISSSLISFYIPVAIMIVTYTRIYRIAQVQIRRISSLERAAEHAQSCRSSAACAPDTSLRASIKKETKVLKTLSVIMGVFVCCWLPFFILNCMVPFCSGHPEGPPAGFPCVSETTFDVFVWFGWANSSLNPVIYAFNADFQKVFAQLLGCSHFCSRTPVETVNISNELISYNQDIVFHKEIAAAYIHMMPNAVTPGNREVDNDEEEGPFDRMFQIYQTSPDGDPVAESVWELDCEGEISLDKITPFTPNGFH
T9 sequence (P21554 whole entry): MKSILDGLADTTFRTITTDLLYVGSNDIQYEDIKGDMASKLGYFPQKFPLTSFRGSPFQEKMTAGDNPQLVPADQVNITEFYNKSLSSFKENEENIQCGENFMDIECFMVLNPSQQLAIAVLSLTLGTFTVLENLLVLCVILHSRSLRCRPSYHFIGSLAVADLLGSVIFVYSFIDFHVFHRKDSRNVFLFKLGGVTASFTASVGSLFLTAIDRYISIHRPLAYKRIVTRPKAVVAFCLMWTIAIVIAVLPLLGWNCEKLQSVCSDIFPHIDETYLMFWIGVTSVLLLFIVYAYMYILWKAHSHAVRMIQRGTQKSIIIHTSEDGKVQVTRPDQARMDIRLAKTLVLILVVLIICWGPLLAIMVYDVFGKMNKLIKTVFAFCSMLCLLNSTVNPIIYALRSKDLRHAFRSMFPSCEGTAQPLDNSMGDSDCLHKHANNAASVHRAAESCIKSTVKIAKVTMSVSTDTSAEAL
T4 sequence (P28221 whole entry): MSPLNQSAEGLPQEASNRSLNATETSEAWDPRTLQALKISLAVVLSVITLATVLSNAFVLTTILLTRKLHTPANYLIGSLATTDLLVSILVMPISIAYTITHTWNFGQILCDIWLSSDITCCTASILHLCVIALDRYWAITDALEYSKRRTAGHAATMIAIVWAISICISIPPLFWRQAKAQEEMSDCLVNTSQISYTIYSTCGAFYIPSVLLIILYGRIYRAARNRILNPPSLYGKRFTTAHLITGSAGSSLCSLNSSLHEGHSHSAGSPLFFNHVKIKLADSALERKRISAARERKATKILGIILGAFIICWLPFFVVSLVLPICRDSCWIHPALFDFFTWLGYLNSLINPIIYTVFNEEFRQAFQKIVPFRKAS
T3 sequence (Q99835 28-787): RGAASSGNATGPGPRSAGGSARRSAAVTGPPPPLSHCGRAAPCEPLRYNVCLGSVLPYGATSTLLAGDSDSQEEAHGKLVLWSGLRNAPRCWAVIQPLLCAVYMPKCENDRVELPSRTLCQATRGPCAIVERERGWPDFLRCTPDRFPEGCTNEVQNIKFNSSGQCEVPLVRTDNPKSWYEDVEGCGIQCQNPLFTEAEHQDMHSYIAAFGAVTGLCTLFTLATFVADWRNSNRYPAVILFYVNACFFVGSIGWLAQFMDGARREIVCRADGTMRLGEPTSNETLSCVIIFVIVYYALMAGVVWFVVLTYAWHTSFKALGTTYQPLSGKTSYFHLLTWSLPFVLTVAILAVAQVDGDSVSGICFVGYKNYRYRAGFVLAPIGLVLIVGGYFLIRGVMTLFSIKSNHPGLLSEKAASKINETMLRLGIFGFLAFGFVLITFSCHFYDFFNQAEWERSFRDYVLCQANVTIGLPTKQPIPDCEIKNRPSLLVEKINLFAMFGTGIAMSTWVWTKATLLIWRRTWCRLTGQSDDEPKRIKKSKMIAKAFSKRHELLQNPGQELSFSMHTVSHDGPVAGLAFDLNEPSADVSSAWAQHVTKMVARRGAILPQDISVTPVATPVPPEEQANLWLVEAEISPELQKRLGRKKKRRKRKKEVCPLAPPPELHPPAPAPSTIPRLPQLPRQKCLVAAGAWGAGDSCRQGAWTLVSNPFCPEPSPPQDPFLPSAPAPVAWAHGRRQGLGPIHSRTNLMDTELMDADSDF

SMILES	NanoBRET Fold Response ([1]; tracer 0.1μM)	NanoBRET Fold Response ([1]; tracer 1μM)	NanoBRET Fold Response ([2]; tracer 0.1μM)	NanoBRET Fold Response ([2]; tracer 1μM)	NanoBRET Fold Response ([3]; tracer 0.1μM)	NanoBRET Fold Response ([3]; tracer 1μM)	NanoBRET Fold Response ([4]; tracer 0.1μM)	NanoBRET Fold Response ([4]; tracer 1μM)	NanoBRET Fold Response ([5]; tracer 0.1μM)	NanoBRET Fold Response ([5]; tracer 1μM)	NanoBRET Fold Response ([6]; tracer 0.1μM)	NanoBRET Fold Response ([6]; tracer 1μM)	NanoBRET Fold Response ([7]; tracer 0.1μM)	NanoBRET Fold Response ([7]; tracer 1μM)	NanoBRET Fold Response ([8]; tracer 0.1μM)	NanoBRET Fold Response ([8]; tracer 1μM)	NanoBRET Fold Response ([9]; tracer 0.1μM)	NanoBRET Fold Response ([9]; tracer 1μM)	other results
O=C(CCc1ccc2n1[B-](F)(F)[N+]1=C(c3ccc[nH]3)C=CC1=C2)NCCOCCOCCNC(=O)OCCOCCN1CCN(C2=Nc3ccccc3Sc3ccccc32)CC1 [Quetiapine-a-2-NB590]	1.00	0.88	1.09	1.43	0.94	0.96	1.02	1.32	1.05	1.13	0.88	0.92	0.92	0.92	0.96	1.05	1.00	1.00	
O=C(CCOCCOCCOCCOCCNC(=O)CCc1ccc2n1[B-](F)(F)[N+]1=C(c3ccc[nH]3)C=CC1=C2)NCCCN1CCN(C2=Nc3cc(Cl)ccc3Nc3ccccc32)CC1 [Clozapine-a-2-NB590]																			NanoBRET Fold Response ([1]; 0.1μM tracer): 1.06; NanoBRET Fold Response ([1]; 1μM tracer): 0.73; NanoBRET Fold Response ([2]; 0.1μM tracer): 2.41; NanoBRET Fold Response ([2]; 1μM tracer): 2.86; NanoBRET Fold Response ([3]; 0.1μM tracer): 1.00; NanoBRET Fold Response ([3]; 1μM tracer): 0.64; NanoBRET Fold Response ([4]; 0.1μM tracer): 1.21; NanoBRET Fold Response ([4]; 1μM tracer): 1.67; NanoBRET Fold Response ([5]; 0.1μM tracer): 1.01; NanoBRET Fold Response ([5]; 1μM tracer): 0.99; NanoBRET Fold Response ([6]; 0.1μM tracer): 1.04; NanoBRET Fold Response ([6]; 1μM tracer): 0.96; NanoBRET Fold Response ([7]; 0.1μM tracer): 0.96; NanoBRET Fold Response ([7]; 1μM tracer): 1.00; NanoBRET Fold Response ([8]; 0.1μM tracer): 1.01; NanoBRET Fold Response ([8]; 1μM tracer): 1.00; NanoBRET Fold Response ([9]; 0.1μM tracer): 1.02; NanoBRET Fold Response ([9]; 1μM tracer): 1.04
N#CN=C(NCCCOc1cccc(CN2CCCCC2)c1)NCCNC(=O)CCOCCOCCOCCOCCNC(=O)CCc1ccc2n1[B-](F)(F)[N+]1=C(c3ccc[nH]3)C=CC1=C2 [Aminopotentidine-2-NB590]	0.93	0.98	1.02	1.01	1.03	0.91	1.40	1.21	0.95	1.02	1.04	0.97	1.02	0.98	0.98	0.48	0.98	1.00	
O=C(CCc1ccc2n1[B-](F)(F)[N+]1=C(c3ccc[nH]3)C=CC1=C2)NCc1ccc(C(=O)NCCOCCOCCNCC(O)COc2cccc3ccccc23)cc1 (stereo not drawn) [Propranolol-3-NB590]																			NanoBRET Fold Response ([1]; 0.1μM): 0.99; NanoBRET Fold Response ([1]; 1μM): 1.19; NanoBRET Fold Response ([2]; 0.1μM): 1.03; NanoBRET Fold Response ([2]; 1μM): 1.00; NanoBRET Fold Response ([3]; 0.1μM): 1.16; NanoBRET Fold Response ([3]; 1μM): 1.07; NanoBRET Fold Response ([4]; 0.1μM): 1.24; NanoBRET Fold Response ([4]; 1μM): 0.96; NanoBRET Fold Response ([5]; 0.1μM): 1.02; NanoBRET Fold Response ([5]; 1μM): 1.04; NanoBRET Fold Response ([6]; 0.1μM): 1.14; NanoBRET Fold Response ([6]; 1μM): 1.08; NanoBRET Fold Response ([7]; 0.1μM): 1.04; NanoBRET Fold Response ([7]; 1μM): 1.02; NanoBRET Fold Response ([8]; 0.1μM): 0.96; NanoBRET Fold Response ([8]; 1μM): 1.06; NanoBRET Fold Response ([9]; 0.1μM): 0.99; NanoBRET Fold Response ([9]; 1μM): 1.00
